From ChEMBL document CHEMBL1126978, “Assessment of the biological value of the 11-hydroxy group of the azalides” (1993)
Values after ≈ are worked out from the molar mass of the structure shown.

Columns and labels:
Assay type in all cases: functional
[1] = tested on: Staphylococcus haemolyticus; assay: Tested in vitro for antimicrobial activity against Staphylococcus haemolyticus MB 5412; value ranges from 0.25-0.5 ug/mL
Staphylococcus aureus [2] = assay: Tested in vitro for antimicrobial activity against Staphylococcus aureus MB 2865
Streptococcus pyogenes [3] = assay: Tested in vitro for antimicrobial activity against Streptococcus pyogenes MB 2874; value ranges from 0.03-0.06 ug/mL
Enterococcus faecalis [4] = assay: Tested in vitro for antimicrobial activity against Enterococcus faecalis MB 5407; value ranges from 4-8 ug/mL
Enterobacter cloacae [5] = assay: Tested in vitro for antimicrobial activity against Enterobacter cloacae CL 4298
Streptococcus pyogenes [6] = assay: Tested in vitro for antimicrobial activity against inducibly macrolide resistant Streptococcus pyogenes MB 5406; value ranges from 16-32 ug/mL
Streptococcus pyogenes [7] = assay: Tested in vitro for antimicrobial activity against constitutively macrolide resistant Streptococcus pyogenes MB 5403
Klebsiella pneumoniae [8] = assay: Tested in vitro for antimicrobial activity against Klebsiella pneumoniae MB 4005; value ranges from 2-4 ug/mL
Haemophilus influenzae [9] = assay: Tested in vitro for antimicrobial activity against Haemophilus influenzae MB 5363; value ranges from 4-8 ug/mL
Escherichia coli [10] = assay: Tested in vitro for antimicrobial activity against Escherichia coli MB 2884
Enterococcus faecalis [11] = assay: Tested in vitro for antimicrobial activity against Enterococcus faecalis MB 5407; value ranges from 2-4 ug/mL
Staphylococcus aureus [12] = assay: Tested in vitro for antimicrobial activity against Staphylococcus aureus MB 2865; value ranges from 0.5-1 ug/mL
[13] = tested on: Staphylococcus haemolyticus; assay: Tested in vitro for antimicrobial activity against Staphylococcus haemolyticus MB 5412; value ranges from 0.125-0.25 ug/mL
Klebsiella pneumoniae [14] = assay: Tested in vitro for antimicrobial activity against Klebsiella pneumoniae MB 4005; value ranges from 1-2 ug/mL
Streptococcus pyogenes [15] = assay: Tested in vitro for antimicrobial activity against inducibly macrolide resistant Streptococcus pyogenes MB 5406; value ranges from 8-16 ug/mL
Enterobacter cloacae [16] = assay: Tested in vitro for antimicrobial activity against Enterobacter cloacae CL 4298; value ranges from 0.5-2 ug/mL
Escherichia coli [17] = assay: Tested in vitro for antimicrobial activity against Escherichia coli MB 2884; value ranges from 1-2 ug/mL
Haemophilus influenzae [18] = assay: Tested in vitro for antimicrobial activity against Haemophilus influenzae MB 5363; value ranges from 1-4 ug/mL
Enterobacter cloacae [19] = assay: Tested in vitro for antimicrobial activity against Enterobacter cloacae CL 4298; value ranges from 2-4 ug/mL
Escherichia coli [20] = assay: Tested in vitro for antimicrobial activity against Escherichia coli MB 2884; value ranges from 2-4 ug/mL
Haemophilus influenzae [21] = assay: Tested in vitro for antimicrobial activity against Haemophilus influenzae MB 5363; value ranges from 2-4 ug/mL
Staphylococcus aureus [22] = assay: Tested in vitro for antimicrobial activity against Staphylococcus aureus MB 2865; value ranges from 0.25-1 ug/mL
Escherichia coli [23] = assay: Tested in vitro for antimicrobial activity against Escherichia coli MB 2884; value ranges from 32-64 ug/mL
Enterococcus faecalis [24] = assay: Tested in vitro for antimicrobial activity against Enterococcus faecalis MB 5407; value ranges from 1-2 ug/mL
Klebsiella pneumoniae [25] = assay: Tested in vitro for antimicrobial activity against Klebsiella pneumoniae MB 4005; value ranges from 32-64 ug/mL
[26] = tested on: Staphylococcus haemolyticus; assay: Tested in vitro for antimicrobial activity against Staphylococcus haemolyticus MB 5412
Staphylococcus aureus [27] = assay: Tested in vitro for antimicrobial activity against Staphylococcus aureus MB 2865; value ranges from 0.25-0.5 ug/mL
Enterobacter cloacae [28] = assay: Tested in vitro for antimicrobial activity against Enterobacter cloacae CL 4298; value ranges from 32-64 ug/mL
Streptococcus pyogenes [29] = assay: Tested in vitro for antimicrobial activity against inducibly macrolide resistant Streptococcus pyogenes MB 5406
Enterobacter cloacae [30] = assay: Tested in vitro for antimicrobial activity against Enterobacter cloacae CL 4298; value ranges from 64->128 ug/mL
Enterococcus faecalis [31] = assay: Tested in vitro for antimicrobial activity against Enterococcus faecalis MB 5407; value ranges from 64-128 ug/mL
Escherichia coli [32] = assay: Tested in vitro for antimicrobial activity against Escherichia coli MB 2884; value ranges from 64->128 ug/mL
Haemophilus influenzae [33] = assay: Tested in vitro for antimicrobial activity against Haemophilus influenzae MB 5363; value ranges from 32->128 ug/mL
Streptococcus pyogenes [34] = assay: Tested in vitro for antimicrobial activity against Streptococcus pyogenes MB 2874; value ranges from 1-4 ug/mL
Staphylococcus aureus [35] = assay: Tested in vitro for antimicrobial activity against Staphylococcus aureus MB 2865; value ranges from 16-64 ug/mL
Klebsiella pneumoniae [36] = assay: Tested in vitro for antimicrobial activity against Klebsiella pneumoniae MB 4005; value ranges from 64->128 ug/mL
[37] = tested on: Staphylococcus haemolyticus; assay: Tested in vitro for antimicrobial activity against Staphylococcus haemolyticus MB 5412; value ranges from 8-32 ug/mL
Klebsiella pneumoniae [38] = assay: Tested in vitro for antimicrobial activity against Klebsiella pneumoniae MB 4005
Enterobacter cloacae [39] = assay: Tested in vitro for antimicrobial activity against Enterobacter cloacae CL 4298; value ranges from 4-8 ug/mL
[40] = tested on: Staphylococcus haemolyticus; assay: Tested in vitro for antimicrobial activity against Staphylococcus haemolyticus MB 5412; value ranges from 0.5-1 ug/mL
Staphylococcus aureus [41] = assay: Tested in vitro for antimicrobial activity against Staphylococcus aureus MB 2865; value ranges from 2-4 ug/mL
Escherichia coli [42] = assay: Tested in vitro for antimicrobial activity against Escherichia coli MB 2884; value ranges from 8-16 ug/mL

Compound `CC[C@H]1OC(=O)[C@H](C)[C@@H](O[C@H]2C[C@@](C)(OC)[C@@H](O)[C@H](C)O2)[C@H](C)[C@@H](O[C@@H]2O[C@H](C)C[C@H](N(C)C)[C@H]2O)[C@](C)(O)C[C@@H](C)N(C)C[C@H](C)C[C@]1(C)O` has an MIC [1] of 0.25 µg/mL (≈ 0.341 µM), an MIC (Staphylococcus aureus [2]) of 2 µg/mL (≈ 2.73 µM) and an MIC (Streptococcus pyogenes [3]) of 0.03 µg/mL (≈ 0.0409 µM). For the same compound, the MIC (Enterococcus faecalis [4]) was 4 µg/mL (≈ 5.46 µM), the MIC (Enterobacter cloacae [5]) was 2 µg/mL (≈ 2.73 µM) and the MIC (Streptococcus pyogenes [6]) was 16 µg/mL (≈ 21.8 µM). The MIC (Streptococcus pyogenes [7]) was over 128 µg/mL, the MIC (Klebsiella pneumoniae [8]) was 2 µg/mL (≈ 2.73 µM) and the MIC (Haemophilus influenzae [9]) was 4 µg/mL (≈ 5.46 µM). For the same compound, the MIC (Escherichia coli [10]) was 4 µg/mL (≈ 5.46 µM).
Compound `CC[C@H]1OC(=O)[C@H](C)[C@@H](O[C@H]2C[C@@](C)(OC)[C@@H](O)[C@H](C)O2)[C@H](C)[C@@H](O[C@@H]2O[C@H](C)C[C@H](N(C)C)[C@H]2O)[C@](C)(O)C[C@@H](C)N(C)C[C@H](C)[C@@H](O)[C@]1(C)O` [L-701677] has an MIC (Enterococcus faecalis [11]) of 2 µg/mL (≈ 2.67 µM), an MIC (Staphylococcus aureus [12]) of 0.5 µg/mL (≈ 0.668 µM) and an MIC (Streptococcus pyogenes [3]) of 0.03 µg/mL (≈ 0.0401 µM). The MIC [13] was 0.125 µg/mL (≈ 0.167 µM), the MIC (Klebsiella pneumoniae [14]) was 1 µg/mL (≈ 1.34 µM) and the MIC (Streptococcus pyogenes [15]) was 8 µg/mL (≈ 10.7 µM). The MIC (Enterobacter cloacae [16]) was 0.5 µg/mL (≈ 0.668 µM), the MIC (Escherichia coli [17]) was 1 µg/mL (≈ 1.34 µM) and the MIC (Streptococcus pyogenes [7]) was over 128 µg/mL. The MIC (Haemophilus influenzae [18]) was 1 µg/mL (≈ 1.34 µM).
Compound `CC[C@H]1OC(=O)[C@H](C)[C@@H](O[C@H]2C[C@@](C)(OC)[C@@H](O)[C@H](C)O2)[C@H](C)[C@@H](O[C@@H]2O[C@H](C)C[C@H](N(C)C)[C@H]2O)[C@](C)(O)C[C@@H](C)N(C)C[C@@H](C)C[C@]1(C)O` has an MIC (Enterococcus faecalis [11]) of 2 µg/mL (≈ 2.73 µM), an MIC (Streptococcus pyogenes [3]) of 0.03 µg/mL (≈ 0.0409 µM) and an MIC [13] of 0.125 µg/mL (≈ 0.171 µM). For the same compound, the MIC (Streptococcus pyogenes [15]) was 8 µg/mL (≈ 10.9 µM), the MIC (Enterobacter cloacae [19]) was 2 µg/mL (≈ 2.73 µM) and the MIC (Escherichia coli [20]) was 2 µg/mL (≈ 2.73 µM). For the same compound, the MIC (Streptococcus pyogenes [7]) was over 128 µg/mL, the MIC (Haemophilus influenzae [21]) was 2 µg/mL (≈ 2.73 µM) and the MIC (Klebsiella pneumoniae [8]) was 2 µg/mL (≈ 2.73 µM). The MIC (Staphylococcus aureus [22]) was 0.25 µg/mL (≈ 0.341 µM).
`CC[C@H]1OC(=O)[C@H](C)[C@@H](O[C@H]2C[C@@](C)(OC)[C@@H](O)[C@H](C)O2)[C@H](C)[C@@H](O[C@@H]2O[C@H](C)C[C@H](N(C)C)[C@H]2O)[C@](C)(O)C[C@@H](C)C(=O)[C@H](C)[C@@H](O)[C@]1(C)O` [ERYTHROMYCIN] gave an MIC (Escherichia coli [23]) of 32 µg/mL (≈ 43.6 µM), an MIC (Enterococcus faecalis [24]) of 1 µg/mL (≈ 1.36 µM) and an MIC (Streptococcus pyogenes [3]) of 0.03 µg/mL (≈ 0.0409 µM). It also gave an MIC (Klebsiella pneumoniae [25]) of 32 µg/mL (≈ 43.6 µM), an MIC [26] of 0.125 µg/mL (≈ 0.17 µM) and an MIC (Staphylococcus aureus [27]) of 0.25 µg/mL (≈ 0.341 µM). The MIC (Streptococcus pyogenes [7]) was over 128 µg/mL, the MIC (Enterobacter cloacae [28]) was 32 µg/mL (≈ 43.6 µM) and the MIC (Streptococcus pyogenes [29]) was 32 µg/mL (≈ 43.6 µM). It also gave an MIC (Haemophilus influenzae [9]) of 4 µg/mL (≈ 5.45 µM).
`CC[C@H]1OC(=O)[C@H](C)[C@@H](O[C@H]2C[C@@](C)(OC)[C@@H](O)[C@H](C)O2)[C@H](C)[C@@H](O[C@@H]2O[C@H](C)C[C@H](N(C)C)[C@H]2O)[C@](C)(O)C[C@@H](C)/N=C2\O[C@]1(C)C=C2C` showed an MIC (Enterobacter cloacae [30]) of 64 µg/mL (≈ 89.8 µM), an MIC (Enterococcus faecalis [31]) of 64 µg/mL (≈ 89.8 µM) and an MIC (Escherichia coli [32]) of 64 µg/mL (≈ 89.8 µM). The MIC (Haemophilus influenzae [33]) was 32 µg/mL (≈ 44.9 µM), the MIC (Streptococcus pyogenes [34]) was 1 µg/mL (≈ 1.4 µM) and the MIC (Staphylococcus aureus [35]) was 16 µg/mL (≈ 22.4 µM). The MIC (Streptococcus pyogenes [7]) was over 128 µg/mL, the MIC (Streptococcus pyogenes [29]) was over 128 µg/mL and the MIC (Klebsiella pneumoniae [36]) was 64 µg/mL (≈ 89.8 µM). For the same compound, the MIC [37] was 8 µg/mL (≈ 11.2 µM).
`CC[C@H]1OC(=O)[C@H](C)[C@@H](O[C@H]2C[C@@](C)(OC)[C@@H](O)[C@H](C)O2)[C@H](C)[C@@H](O[C@@H]2O[C@H](C)C[C@H](N(C)C)[C@H]2O)[C@](C)(O)C[C@@H](C)N(C)C/C(C)=C/[C@]1(C)O` gave an MIC (Klebsiella pneumoniae [38]) of 8 µg/mL (≈ 10.9 µM), an MIC (Enterobacter cloacae [39]) of 4 µg/mL (≈ 5.47 µM) and an MIC [40] of 0.5 µg/mL (≈ 0.684 µM). It also gave an MIC (Streptococcus pyogenes [3]) of 0.03 µg/mL (≈ 0.041 µM), an MIC (Streptococcus pyogenes [15]) of 8 µg/mL (≈ 10.9 µM) and an MIC (Staphylococcus aureus [41]) of 2 µg/mL (≈ 2.74 µM). For the same compound, the MIC (Enterococcus faecalis [4]) was 4 µg/mL (≈ 5.47 µM), the MIC (Streptococcus pyogenes [7]) was over 128 µg/mL and the MIC (Escherichia coli [42]) was 8 µg/mL (≈ 10.9 µM). The MIC (Haemophilus influenzae [9]) was 4 µg/mL (≈ 5.47 µM).
